Results from PubChem BioAssay (NCI).
Several values for one entry are separate records, joined by “and”; a condition that tells them apart may be missing. Equal values may be shown once.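 Grown in 96-well plates, cells were treated for 48 hours with each compound at five concentrations. Insufficient inhibition: endpoint recorded as highest concentration tested. At the GI50, growth is halved. TGI: total growth inhibition.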

Tests used:
Assay in all cases: DTP human tumour cell line panel, 48 h
HOP-62 NSCLC = tested on: HOP-62 NSCLC
OVCAR-8 ovarian = tested on: OVCAR-8 ovarian
EKVX NSCLC = tested on: EKVX NSCLC
DU-145 prostate = tested on: DU-145 prostate
ACHN renal = tested on: ACHN renal
OVCAR-4 ovarian = tested on: OVCAR-4 ovarian
SK-MEL-28 melanoma = tested on: SK-MEL-28 melanoma
SW-620 colon = tested on: SW-620 colon
CAKI-1 renal = tested on: CAKI-1 renal
HCT-116 colon = tested on: HCT-116 colon

SMILES	GI50 (HOP-62 NSCLC)	TGI (HOP-62 NSCLC)	GI50 (OVCAR-8 ovarian)	TGI (OVCAR-8 ovarian)	GI50 (EKVX NSCLC)	TGI (EKVX NSCLC)	GI50 (DU-145 prostate)	TGI (DU-145 prostate)	GI50 (ACHN renal)	TGI (ACHN renal)	GI50 (OVCAR-4 ovarian)	TGI (OVCAR-4 ovarian)	GI50 (SK-MEL-28 melanoma)	TGI (SK-MEL-28 melanoma)	GI50 (SW-620 colon)	TGI (SW-620 colon)	GI50 (CAKI-1 renal)	TGI (CAKI-1 renal)	GI50 (HCT-116 colon)	TGI (HCT-116 colon)
COc1ccc(/C=N\Nc2nc(SCC(C)C)nc(-c3ccc(OC)cc3)c2C#N)cc1	0.414 µM	10.8 µM	5.3 µM	29.8 µM	12.4 µM	86.9 µM	13.7 µM	> 100 µM	0.71 µM	2.37 µM	0.417 µM	1.83 µM	30.8 µM	> 100 µM	5.15 µM	> 100 µM	1.55 µM	3.96 µM	0.679 µM	15.3 µM
COc1cc2c(cc1NC(=O)C(Cl)Cl)-c1ccc(NC(=O)C(Cl)Cl)cc1C2	0.587 µM	1.64 µM	0.439 µM	1.68 µM	0.347 µM	1.32 µM	0.265 µM	0.804 µM	0.268 µM	0.971 µM	1.04 µM	5.56 µM	0.611 µM	1.76 µM	0.264 µM	0.935 µM	1.01 µM	4.04 µM	0.136 µM	0.271 µM
O=c1[nH]c2ccccc2n1C1CCN(CCCC(c2ccc(F)cc2)c2ccc(F)cc2)CC1	1.53 µM	2.89 µM and 22.3 µM	1.58 µM and 9.14 µM	3.28 µM and 24.3 µM	1.66 µM and 8.47 µM	4.54 µM and 22.7 µM	1.73 µM and 13.7 µM	3.24 µM and 28.5 µM	1.66 µM and 10.9 µM	3.16 µM and 24.7 µM	1.23 µM	2.47 µM and 22 µM	1.61 µM	2.99 µM and 5.86 µM	1.75 µM and 4.5 µM	3.41 µM and 13.8 µM	1.39 µM and 7.46 µM	2.96 µM and 20.9 µM	1.44 µM and 5.67 µM	3.14 µM and 17.8 µM
O=C1/C(=C/c2ccccc2[N+](=O)[O-])COc2ccc(O)cc21	5.21 µM	19.3 µM	2.3 µM	47.8 µM	3.22 µM	14.5 µM	1.72 µM	4.29 µM	0.74 µM	2.13 µM	1.9 µM	8.63 µM	1.55 µM	3.14 µM	0.448 µM	1.81 µM	1.03 µM	2.91 µM	0.352 µM	1.57 µM
CSC1=Nc2c(c(C)c(-c3ccccc3)n2COC(CO)CO)C2=NC(=O)CN12	98.2 µM	> 100 µM	> 100 µM	> 100 µM	> 100 µM	> 100 µM	> 100 µM	> 100 µM	> 100 µM	> 100 µM	> 100 µM	> 100 µM	> 100 µM	> 100 µM	> 100 µM	> 100 µM	> 100 µM	> 100 µM	> 100 µM	> 100 µM
O=c1[nH]c(=S)[nH]c(-c2ccccc2)c1Cc1c(O)ccc2ccccc12	–	> 100 µM	–	> 100 µM	–	64.4 µM	–	> 100 µM	–	> 100 µM	–	> 100 µM	–	> 100 µM	–	> 100 µM	–	> 100 µM	–	74.4 µM
Cc1ccc(Cl)cc1-n1c(C)nc2c(cnn2-c2ccnc3c(C(F)(F)F)cccc23)c1=O	> 100 µM	> 100 µM	> 100 µM	> 100 µM	> 100 µM	> 100 µM	> 100 µM	> 100 µM	> 100 µM	> 100 µM	> 100 µM	> 100 µM	> 100 µM	> 100 µM	> 100 µM	> 100 µM	> 100 µM	> 100 µM	> 100 µM	> 100 µM
COc1c(CC=C(C)C)c(O)c(C(CC(C)C)c2c(O)c(CC=C(C)C)c(O)c(C(C)=O)c2O)c(O)c1C(C)=O (stereo not drawn)	–	3.96 µM	–	10.3 µM	–	11.4 µM	–	16.5 µM	–	10.9 µM	–	14.4 µM	–	5.21 µM	–	5.8 µM	–	11.7 µM	–	1.6 µM
CC(C)(C)c1cc(C(=O)O)c2c(c1)C(=O)OC2(c1ccccc1)c1ccccc1C(=O)O (stereo not drawn)	–	> 100 µM	–	> 100 µM	–	> 100 µM	> 100 µM	> 100 µM	–	> 100 µM	–	> 100 µM	–	> 100 µM	–	> 100 µM	–	> 100 µM	–	> 100 µM
CN1CCCC1c1cccnc1.O=C(O)c1ccccc1O.O=C([O-])c1ccccc1[OH2+].O=C([O-])c1ccccc1[OH2+].[Mn+2] (stereo not drawn)	> 100 µM	> 100 µM	> 100 µM	> 100 µM	> 100 µM	> 100 µM	> 100 µM	> 100 µM	> 100 µM	> 100 µM	> 100 µM	> 100 µM	> 100 µM	> 100 µM	64.3 µM	> 100 µM	> 100 µM	> 100 µM	> 100 µM	> 100 µM
c1ccc(CN2COc3c(ccc4c5c(ccc34)CN(Cc3ccccc3)CO5)C2)cc1	–	> 100 µM	–	> 100 µM	–	> 100 µM	–	> 100 µM	–	> 100 µM	–	> 100 µM	–	> 100 µM	–	> 100 µM	–	> 100 µM	–	> 100 µM
NCc1ccc(-c2nc(-c3ccc(Cl)c(O)c3)c(-c3ccncc3)[nH]2)cc1	> 25 µM	> 25 µM	> 25 µM	> 25 µM	> 25 µM	> 25 µM	> 25 µM	> 25 µM	> 25 µM	> 25 µM	> 25 µM	> 25 µM	5.3 µM	> 25 µM	24.2 µM	> 25 µM	> 25 µM	> 25 µM	15.9 µM	> 25 µM
N#Cc1cc2c(cc1Cl)Sc1nnc(Nc3cccc4ccccc34)n1S2(=O)=O	15.6 µM	29.6 µM	30.2 µM	> 100 µM	20.2 µM	39.6 µM	3.66 µM	12.9 µM	6.34 µM	19.2 µM	6.48 µM	26.8 µM	5.05 µM	16.3 µM	3.61 µM	12.3 µM	3.14 µM	10.9 µM	3.98 µM	14.2 µM
Nc1nc(-c2ccc(Cl)cc2)nc2c1sc(=S)n2-c1ccccc1	3.4 µM	11.7 µM	5.16 µM	> 100 µM	2.75 µM	14.7 µM	4.36 µM	18.9 µM	1.83 µM	3.82 µM	1.95 µM	4.57 µM	5.22 µM	> 100 µM	6.45 µM	82.9 µM	9.17 µM	84.5 µM	2.94 µM	10.9 µM
CCn1ccnc1C(=O)/C=C/c1ccc(CC(=O)Nc2ccc(F)cc2)cc1	3.92 µM	9.93 µM	4.86 µM	> 16.7 µM	3.59 µM	12.2 µM	4.45 µM	> 16.7 µM	3.95 µM	11.7 µM	3.31 µM	> 16.7 µM	4.92 µM	> 16.7 µM	4.29 µM	> 16.7 µM	5.08 µM	> 16.7 µM	1.84 µM	4.4 µM
C/C(=N\NC(=S)N1CCN(c2ccccn2)CC1)c1ncccn1	0.0865 µM	2.09 µM and 7.05 µM	0.0154 µM	5.4 µM and 16.4 µM	0.0494 µM	5.2 µM and 12.8 µM	3.17 µM	18.8 µM	0.0871 µM	12.1 µM	2.44 µM	4.26 µM and 21.2 µM	0.566 µM	7.1 µM and 14.1 µM	0.038 µM	5.18 µM and 17.8 µM	0.447 µM	16 µM	–	5.05 µM and 14.7 µM
CC1(C)[C@H](O)[C@H](F)C[C@@]2(C)Oc3ccc(C(=O)Nc4ccc5c(c4)NC(=O)C54CCN(CCCCC#N)CC4)cc3C[C@H]12	1.28 µM and 1.13 µM	5.61 µM	5.36 µM	45.1 µM	4.01 µM and 4.25 µM	22.1 µM	–	17.3 µM	0.961 µM and 5.29 µM	23.2 µM	4.31 µM and 6.31 µM	20.4 µM	1.25 µM and 1.2 µM	3.61 µM and 3.43 µM	0.0943 µM and 0.0405 µM	2.52 µM and 2.68 µM	–	38.5 µM	0.149 µM and 1.33 µM	10.7 µM
N#C/C(=C\c1cc2ccc(N3CCC3)cc2oc1=O)C(=O)N(CC(=O)O)CC(=O)O	> 100 µM	> 100 µM	> 100 µM	> 100 µM	> 100 µM	> 100 µM	> 100 µM	> 100 µM	> 100 µM	> 100 µM	> 100 µM	> 100 µM	> 100 µM	> 100 µM	> 100 µM	> 100 µM	> 100 µM	> 100 µM	> 100 µM	> 100 µM
O=C1/C(=C/c2ccccc2O)N=C(c2ccccc2)N1c1cc(C(F)(F)F)ccc1Cl	15.9 µM	30.4 µM	46.3 µM	> 100 µM	38.3 µM	> 100 µM	43.8 µM	> 100 µM	18.6 µM	51.4 µM	> 100 µM	> 100 µM	> 100 µM	> 100 µM	> 100 µM	> 100 µM	14.3 µM	38.5 µM	25 µM	> 100 µM
COC1=C(OC)C(=O)C(CCCCCCCCCCO)=C(C)C1=O	16 µM	29.5 µM	3.76 µM	16.2 µM	5.89 µM	21.8 µM	7.77 µM	22.4 µM	3.35 µM	11.2 µM	1.29 µM	2.6 µM	13.5 µM	26.5 µM	14.7 µM	30.9 µM	4.01 µM	29 µM	4.46 µM	16.1 µM
[Cl][Cu][Cl]	> 10 µM	> 10 µM	> 10 µM	> 10 µM	> 10 µM	> 10 µM	> 10 µM	> 10 µM	> 10 µM	> 10 µM	> 10 µM	> 10 µM	> 10 µM	> 10 µM	> 10 µM	> 10 µM	> 10 µM	> 10 µM	> 10 µM	> 10 µM
Nc1nc2ccccc2c2c1S(=O)(=O)c1ccc(Cl)cc1C2=O	2.31 µM	> 50 µM	1.54 µM	> 50 µM	1.84 µM	> 50 µM	2.13 µM	> 50 µM	1.38 µM	> 50 µM	1.46 µM	10.8 µM	2.09 µM	14.1 µM	1.02 µM	2.25 µM	1.59 µM	> 50 µM	1.87 µM	32 µM
O=[N+]([O-])c1cc(Cc2cc([N+](=O)[O-])c3cccnc3c2O)c(O)c2ncccc12	–	42.4 µM	–	> 42.9 µM	–	61.9 µM	–	54 µM	–	41.3 µM	–	> 74.1 µM	–	37.4 µM	–	> 67.9 µM	–	41.3 µM	–	16.9 µM
c1ccc(C2CCCCC2)c(OCCCCCN2CCNCC2)c1	10.4 µM	28.5 µM	13.4 µM	43 µM	4.07 µM	19.9 µM	4.17 µM	16.2 µM	3.45 µM	13.2 µM	4.01 µM	17 µM	1.81 µM	3.57 µM	1.82 µM	3.8 µM	2.81 µM	10.9 µM	1.65 µM	4.19 µM
COC1=C(OC)[C@]2(OC)c3c(O)c(OC)c4c(c3O[C@@]23O[C@@H](c2ccccc2)CC=C3C1=O)[C@@H](OC)C[C@H](c1ccccc1)O4	2.33 µM	5.61 µM	0.451 µM	2.62 µM	1.3 µM	2.75 µM	2.09 µM	3.75 µM	0.605 µM	1.81 µM	0.667 µM	2.15 µM	0.591 µM	1.49 µM	0.178 µM	0.933 µM	0.51 µM	1.88 µM	0.226 µM	0.517 µM
c1ccc2c(CNCCN3CCNCC3)c3ccccc3c(CNCCN3CCNCC3)c2c1	11.9 µM	36.1 µM	36.9 µM	> 100 µM	19.3 µM	61.3 µM	7.26 µM	33.2 µM	31.2 µM	> 100 µM	43.8 µM	> 100 µM	42.8 µM	> 100 µM	16.4 µM	49.3 µM	> 100 µM	> 100 µM	13.3 µM	29.5 µM
